According to patent US20150051295A1, “USE OF PROPANOL AND PROPENOL DERIVATIVES AS ANTIOXIDANTS” (MERCK PATENT GmbH, priority 2011, published 2015):

Assay: Determination of the reducing (=antioxidative) property: TLC plate chromatographed, then sprayed with potassium permanganate solution
Conditions: substance in MTB ether on TLC silica gel 60F254 plate, heptane/ethyl acetate 2/1, then sprayed with freshly prepared KMnO4/NaOH solution
Description: Determination of the reducing (=antioxidative) property of 3-(4-tert-butyl phenyl)-1-(4-methoxyphenyl)prop-2-en-1-ol (substance 1a) and of 3-(4-tert-butylphenyl)-1-(4-methoxyphenyl)propan-1-ol (substance 2a): a little substance is dissolved in MTB ether and applied to a TLC plate (TLC silica gel 60F254 plate). The plate is chromatographed with heptane/ethyl acetate 2/1. […] The Rf values are at 0.61 (substance 2a) and 0.35 (substance 1a).

Structure (SMILES) | reducing (=antioxidative) property: decolourisation of potassium permanganate spray solution at substance spots
COc1ccc(C(O)/C=C/c2ccc(C(C)(C)C)cc2)cc1 (centres unmarked) [substance 1a, 3-(4-tert-butylphenyl)-1-(4-methoxyphenyl)prop-2-en-1-ol] | decolorises at the substance spots
COc1ccc(C(O)CCc2ccc(C(C)(C)C)cc2)cc1 (centres unmarked) [substance 2a, 3-(4-tert-butylphenyl)-1-(4-methoxyphenyl)propan-1-ol] | decolorises at the substance spots
